# Columns and labels:
# Format in all cases: in vivo
# [1] = test system: Dermanyssus gallinae; assay: Miticidal action against Dermanyssus gallinae (contact test in glass vessel, mortality); settings: geringere Wirkstoffkonzentrationen (below 100 ppm); observed three days; 4320 min
# Method: Beispiel B.1: Milbizide Wirkung gegen Dermanyssus gallinae
# 2 bis 3 ml einer Testlösung (250, 100 und 10 ppm Aktivsubstanz) werden in einen nach oben offenen Glasbehälter gegeben und ca. 200 Milben in unterschiedlichen Entwicklungsstadien in diesen Behälter eingesetzt. Der Glasbehälter wird mit einem Wattebausch verschlossen und 10 Minuten gleichmässig, bis zur vollständigen [benetzung der Milben geschüttelt. Danach wird der Behälter umgekehrt hingestellt, bis die überschüssige Testlösung von der Watte aufgesogen ist. Der Behälter wird erneut gekehrt und die behandelten Zecken zur Evaluierung der Wirksamkeit der Testsubstanzen drei Tage unter Laborbedingungen beobachtet, wobei die Mortalität als Massstab für Wirksamkeit herangezogen wird.
# [2] = test system: LI-Larven von Lucilia sericata; assay: Action against L1 larvae of Lucilia sericata (larval culture medium, mortality); settings: reduced concentration of 100 ppm, after 4 days; for mortality at 100 ppm: Lucilia sericata, 96 h, read-out: Wirkung (Mortalitätsrate)
# Method: Beispiel B.2: Wirkung gegen LI-Larven von Lucilia sericata
# (§1) 1 ml einer wässrigen Suspension der zu prüfenden Aktivsubstanz werden so mit 3 ml eines speziellen Larvenzuchtmediums bei ca. 50°C vermischt, dass ein Homogenisat von wahlweise 250 ppm oder 100 ppm Wirkstoffgehalt entsteht. In jede Reagenzglas-Probe werden ca. 30 Lucilia-Larven (L1) eingesetzt. Nach 4 Tagen wird die Mortalitätsrate bestimmt. Die Verbindungen aus den Herstellungsbeispielen zeigen bei 250 ppm eine Wirkung von 100 %, wobei Verbindungen aus den Herstellungsbeispielen diese Wirkung auch noch bei der reduzierten Wirkstoffkonzentration von 100 ppm erzielen, wie beispielsweise die Verbindungen Nr. 1.10, 1.18, 1.26, 1.34, 1.39, 1.43, 1.46, 1.54, 1.58, 1.62, 1.82, 1.90 und 1.114.
# [3] = test system: Aedes aegypti; assay: Larvicidal action against Aedes aegypti (larvae in water); settings: niedrigere Konzentrationen (below 3 ppm)
# Method: Beispiel B.10: Larvizidwirkung gegen Aedes aegypti
# Auf die Oberfläche von 150 ml Wasser, das sich in einem Behälter befindet, wird soviel einer 0,1 %igen acetonischen Lösung des Wirkstoffes pipettiert, dass Konzentrationen von wahlweise 12,5 ppm, 3,3 ppm und 1,6 ppm erhalten werden. Nach Verdunsten des Acetons wird der Behälter mit ca. 30-40 3 Tage alten Aedes-Larven beschickt. Nach 1, 2 und 5 Tagen wird die Mortalität geprüft.
# [4] = test system: Spodoptera littoralis; assay: Insecticidal stomach-poison action on Spodoptera littoralis (sprayed cotton plants); settings: niedrigere Konzentrationen (below 12,5 ppm); L1 larvae
# Method: Beispiel B.6: Insektizide Frassgift-Wirkung bei Spodoptera littoralis
# Eingetopfte Baumwollpflanzen im 5-Blatt-Stadium werden mit einer acetonisch/wässrigen Versuchslösung besprüht, die 3, 12,5 oder 50 ppm der zu prüfenden Verbindung enthält.
# Nach dem Antrocknen des Belags werden die Pflanzen mit ca. 30 Larven (LI-Stadium) von Spodoptera littoralis besetzt. Pro Versuchsverbindung und pro Test-Spezies verwendet man zwei Pflanzen. Der Versuch wird bei ca. 24°C und 60 % relativer Luftfeuchtigkeit durchgeführt. Auswertungen und Zwischenauswertungen auf moribunde Tiere, Wachstum und Larven und Frassschäden erfolgen nach 24 Stunden, 48 Stunden und 72 Stunden.
# [5] = test system: Aphis craccivora; assay: Contact action on Aphis craccivora (sprayed pea seedlings); settings: niedrigere Konzentrationen (below 25 ppm); after 3 days
# Description: Beispiel B.9: Kontaktwirkung auf Aphis craccivora
# Erbsenkeimlinge, die mit sämtlichen Entwicklungsstadien der Laus infiziert sind, werden mit einer aus einem Emulsionskonzentrat hergestellten Wirkstofflösung besprüht, die wahlweise 50 ppm, 25 ppm oder 12,5 ppm Wirkstoff enthält. Nach 3 Tagen wird auf mehr als 80 % tote bzw. abgefallene Blattläuse ausgewertet. Nur bei dieser Wirkungshöhe wird ein Präparat als wirksam eingestuft.
# [6] = test system: OP-sensible Tetranychus urticae; assay: Action against plant-damaging acarids, OP-sensitive Tetranychus urticae (sprayed bean plants); settings: niedrigere Konzentrationen (below 1,6 ppm); after seven days
# Method: Beispiel B.7: Wirkung gegen pflanzenschädigende Akariden OP-sensible Tetranychus urticae
# Die Primärblätter von Bohnenpflanzen (Phaseolus vulgaris) werden 16 Stunden vor dem Versuch mit einem durch T. urticae infestierten, aus einer Massenzucht stammenden Blattstück belegt. […] Die Temperatur in der Gewächshauskabine beträgt ca. 25°C.
# Nach sieben Tagen wird unter dem Binokular auf Prozentsatz mobiler Stadien (Adulte und Nymphen) und auf vorhandene Eier ausgewertet.
# [7] = test system: Ll-Larven von Lucilia cuprina; assay: Action against L1 larvae of Lucilia cuprina (as B.2); settings: niedrigere Konzentrationen (below 100 ppm)
# Method: as §1
# Beispiel B.3: Wirkung gegen Ll-Larven von Lucilia cuprina
# Der Test wird wie unter B.2 beschrieben durchgeführt, jedoch mit Larven von Lucilia cuprina. […] Bei manchen Verbindungen wird dieser Effekt bereits mit niedrigeren Konzentrationen erreicht, beispielsweise mit den Verbindungen Nr. 1.34, 1.90 und 1.114.
# [8] = test system: Meloidogyne incognita; assay: Soil nematicidal action against Meloidogyne incognita (tomato plants, root-knot index); settings: after 4 weeks
# Method: Beispiel B.4: Bodennematizide Wirkung gegen Meloidogyne incognita
# (§2) Eier von Meloidogyne incognita werden in Sand eingemischt. Dieses Gemisch wird dann in 200 ml fassende Tontöpfe eingebracht (5000 Eier pro Topf). Am gleichen Tag wird pro Topf eine 3 Wochen alte Tomatenpflanze gepflanzt und der aus 50 %-igem Emulsionskonzentrat formulierte Wirkstoff mittels Druckapplikation in die Töpfe hineingegeben. Die eingetopften Pflanzen werden nun bei einer Temperatur von 26!1°C und einer relativen Luftfeuchtigkeit von 60 % in einem Gewächshaus aufgestellt. Nach Ablauf von 4 Wochen erfolgt eine Evaluierung durch Untersuchung der Pflanzen auf Wurzelgallbildung nach dem sogenannten Wurzelgall-Index ("Knot Index").
# [9] = test system: Caenorhabditis elegans; assay: Soil nematicidal action against Caenorhabditis elegans (as B.4); settings: test as B.4
# Method: as §2
# Beispiel B.5: Bodennematizide Wirkung gegen Caenorhabditis elegans
# Der Test wird wie unter B.4 beschrieben durchgeführt, jedoch mit Caenorhabditis elegans. Die Verbindungn der Herstellungsbeispiele zeigen in diesem Test eine gute Wirksamkeit. Um eine fast vollständige Hemmung der Reproduktion zu erreichen, genügen bei manchen Verbindungen Konzentrationen von 1 ppm und weniger, wie beispielsweise bei den Verbindungen Nr. 1.39, 1.70 und 1.90 und vor allem Nr. 1.2, 1.3, 1.26, 1.43 und 1.66.
Compound,Wirkung (Mortalität) [1] [%],mortality at 100 ppm [2] [%],Abtötung sämtlicher Larven [3],Abtötung [4],Abtötung [5] [%],Abtötung [6],further results
"CC[C@H]1O[C@]2(CC[C@@H]1C)C[C@@H]1C[C@@H](C/C=C(\C)[C@H](OC(=O)OCCBr)[C@@H](C)/C=C/C=C3\CO[C@@H]4[C@H](O)C(C)=C[C@@H](C(=O)O1)[C@]34O)O2 [1.18, 13ß-(2-Bromäthoxy)-carbonyloxy-milbemycin A4]",100,100,,,,,
"CC[C@H]1O[C@]2(CC[C@@H]1C)C[C@@H]1C[C@@H](C/C=C(\C)[C@H](OC(=O)OCC(Cl)(Cl)Cl)[C@@H](C)/C=C/C=C3\CO[C@@H]4[C@H](O)C(C)=C[C@@H](C(=O)O1)[C@]34O)O2 [1.26, 13ß-[(2,2,2-Trichlorethoxy)-carbonyloxy]-milbemycin A4]",,100,vollständige Abtötung,vollständige Abtötung,,,
"C=CCOC(=O)O[C@H]1/C(C)=C/C[C@@H]2C[C@@H](C[C@]3(CC[C@H](C)[C@@H](C(C)C)O3)O2)OC(=O)[C@@H]2C=C(C)[C@@H](O)[C@H]3OC/C(=C\C=C\[C@@H]1C)[C@]32O [1.43, 13β-(Allyloxycarbonyloxy)-milbemycin D]",100,100,,,100,,
"CC[C@H]1O[C@]2(CC[C@@H]1C)C[C@@H]1C[C@@H](C/C=C(\C)[C@H](OC(=O)OC(C)(C)C(Cl)(Cl)Cl)[C@@H](C)/C=C/C=C3\CO[C@@H]4[C@H](O)C(C)=C[C@@H](C(=O)O1)[C@]34O)O2 [1.34, 13ß-[(1,1-Dimethyl-2,2,2-trichlorethoxy)-carbonyloxy]-milbemycin A4]",,100,vollständige Abtötung,vollständige Abtötung,100,vollständige Abtötung,Vernichtung des Schädlings [7]: vollständige Vernichtung
"C=COC(=O)O[C@H]1/C(C)=C/C[C@@H]2C[C@@H](C[C@]3(CC[C@H](C)[C@@H](C(C)C)O3)O2)OC(=O)[C@@H]2C=C(C)[C@@H](O)[C@H]3OC/C(=C\C=C\[C@@H]1C)[C@]32O [1.39, 13ß-(Vinyloxycarbonyloxy)-milbemycin D]",100,100,,,100,,
13β-([-]-Menthyloxy)-carbonyloxy-milbemycin A4 [1.90],,,vollständige Abtötung,,,,Konzentration für fast vollständige Hemmung der Reproduktion [8]: ≤ 1 ppm; Konzentration für fast vollständige Hemmung der Reproduktion [9]: ≤ 1 ppm; Vernichtung des Schädlings [7]: vollständige Vernichtung; Wirkung (Mortalitätsrate) [2]: 100%
"CC[C@H]1O[C@]2(CC[C@@H]1C)C[C@@H]1C[C@@H](C/C=C(\C)[C@H](OC(=O)OC(C)C)[C@@H](C)/C=C/C=C3\CO[C@@H]4[C@H](O)C(C)=C[C@@H](C(=O)O1)[C@]34O)O2 [1.10, 13ß-Isopropyloxycarbonyloxy-milbemycin A4]",100,100,vollständige Abtötung,vollständige Abtötung,100,vollständige Abtötung,
"CC[C@H]1O[C@]2(CC[C@@H]1C)C[C@@H]1C[C@@H](C/C=C(\C)[C@H](OC(=O)Oc3ccc(C(=O)OC)cc3)[C@@H](C)/C=C/C=C3\CO[C@@H]4[C@H](O)C(C)=C[C@@H](C(=O)O1)[C@]34O)O2 [1.62, 13ß-(4-Methoxycarbonylphenoxy)-carbonyloxy-milbemycin A4]",,100,vollständige Abtötung,,,,
"CC[C@H]1O[C@]2(CC[C@@H]1C)C[C@@H]1C[C@@H](C/C=C(\C)[C@H](OC(=O)Oc3ccccc3)[C@@H](C)/C=C/C=C3\CO[C@@H]4[C@H](O)C(C)=C[C@@H](C(=O)O1)[C@]34O)O2 [1.54, 13ß-Phenoxycarbonyloxy-milbemycin A4]",,100,vollständige Abtötung,vollständige Abtötung,100,,
13ß-(9-Fluorenyl-methoxy)-carbonyloxy-milbemycin A4 [1.114],,,vollständige Abtötung,,,,Vernichtung des Schädlings [7]: vollständige Vernichtung; Wirkung (Mortalitätsrate) [2]: 100%
"CC[C@H]1O[C@]2(CC[C@@H]1C)C[C@@H]1C[C@@H](C/C=C(\C)[C@H](OC(=O)OC)[C@@H](C)/C=C/C=C3\CO[C@@H]4[C@H](O)C(C)=C[C@@H](C(=O)O1)[C@]34O)O2 [1.2, 13ß-(Methoxycarbonyloxy)-milbemycin A4]",100,,,,100,,
"CC[C@H]1O[C@]2(CC[C@@H]1C)C[C@@H]1C[C@@H](C/C=C(\C)[C@H](OC(=O)OCc3ccccc3)[C@@H](C)/C=C/C=C3\CO[C@@H]4[C@H](O)C(C)=C[C@@H](C(=O)O1)[C@]34O)O2 [1.46, 13β-Benzyloxycarbonyloxy-milbemycin A4]",100,100,,,,,
"CC[C@H]1O[C@]2(CC[C@@H]1C)C[C@@H]1C[C@@H](C/C=C(\C)[C@H](OC(=O)Oc3ccc([N+](=O)[O-])cc3)[C@@H](C)/C=C/C=C3\CO[C@@H]4[C@H](O)C(C)=C[C@@H](C(=O)O1)[C@]34O)O2 [1.58, 13ß-(4-Nitrophenoxy)-carbonyloxy-milbemycin A4]",,100,vollständige Abtötung,,,,
"CC[C@H]1O[C@]2(CC[C@@H]1C)C[C@@H]1C[C@@H](C/C=C(\C)[C@H](OC(=O)OCC(Cl)(Cl)C(F)(F)F)[C@@H](C)/C=C/C=C3\CO[C@@H]4[C@H](O)C(C)=C[C@@H](C(=O)O1)[C@]34O)O2 [1.98, 13ß-(3,3,3-Trifluor-2,2-dichlor-propyloxy)-carbonyloxy-milbemycin A4]",,,vollständige Abtötung,vollständige Abtötung,,vollständige Abtötung,
13β-(Cyclohexyloxycarbonyloxy)-milbemycin A4 [1.82],,,vollständige Abtötung,vollständige Abtötung,,vollständige Abtötung,Wirkung (Mortalitätsrate) [2]: 100%
"COC(=O)O[C@H]1/C(C)=C/C[C@@H]2C[C@@H](C[C@]3(CC[C@H](C)[C@@H](C(C)C)O3)O2)OC(=O)[C@@H]2C=C(C)[C@@H](O)[C@H]3OC/C(=C\C=C\[C@@H]1C)[C@]32O [1.3, 13ß-(Methoxycarbonyloxy)-milbemycin D]",100,,,vollständige Abtötung,100,vollständige Abtötung,
